# Test results from patent US20230131720A1, “[1,3]DIAZINO[5,4-d]PYRIMIDINES AS HER2 INHIBITORS” (Boehringer Ingelheim International GmbH, priority 2020, published 2023).
# Target: T1, HER2 YVMA (Homo sapiens, UniProt P04626, INS775YVMA)
# T1 construct: expressed in transfected cells; host or cells: human HEK cells, retroviral transduction, doxycycline-inducible expression
# Assay: pHER2 (ERBB2) YVMA assay (AlphaScreen Surefire, HEK cells)
# Type: cell-based
# Details: HEK cells expressing HER2 YVMA, phosphorylation at Tyr1221/1222, 4 h
# Method: (§1) For the assay, HEK HER2 YVMA cells were seeded in MEM medium with 10% FBS. 4 hours prior to compound addition, HER2 YVMA expression was induced using 1 μg/ml Doxycycline. […] Subsequently, 60.000 cells/well in 60 μL were added. Cells were incubated with compounds for 4 h at 37° C. […] The mixture was incubated at a temperature of 20-25° C. with shaking (700 rpm) for 20 min. After centrifugation, 4 μL of the lysate were transferred to Proxiplates. […] Plates were shaken for 1 min (1400 rpm) and incubated for 2 h at a temperature of 20-25° C. in the dark.
# The results of the assay are provided as IC50 values.
# T1 sequence (P04626 with tags, fused parts or gaps INS775YVMA): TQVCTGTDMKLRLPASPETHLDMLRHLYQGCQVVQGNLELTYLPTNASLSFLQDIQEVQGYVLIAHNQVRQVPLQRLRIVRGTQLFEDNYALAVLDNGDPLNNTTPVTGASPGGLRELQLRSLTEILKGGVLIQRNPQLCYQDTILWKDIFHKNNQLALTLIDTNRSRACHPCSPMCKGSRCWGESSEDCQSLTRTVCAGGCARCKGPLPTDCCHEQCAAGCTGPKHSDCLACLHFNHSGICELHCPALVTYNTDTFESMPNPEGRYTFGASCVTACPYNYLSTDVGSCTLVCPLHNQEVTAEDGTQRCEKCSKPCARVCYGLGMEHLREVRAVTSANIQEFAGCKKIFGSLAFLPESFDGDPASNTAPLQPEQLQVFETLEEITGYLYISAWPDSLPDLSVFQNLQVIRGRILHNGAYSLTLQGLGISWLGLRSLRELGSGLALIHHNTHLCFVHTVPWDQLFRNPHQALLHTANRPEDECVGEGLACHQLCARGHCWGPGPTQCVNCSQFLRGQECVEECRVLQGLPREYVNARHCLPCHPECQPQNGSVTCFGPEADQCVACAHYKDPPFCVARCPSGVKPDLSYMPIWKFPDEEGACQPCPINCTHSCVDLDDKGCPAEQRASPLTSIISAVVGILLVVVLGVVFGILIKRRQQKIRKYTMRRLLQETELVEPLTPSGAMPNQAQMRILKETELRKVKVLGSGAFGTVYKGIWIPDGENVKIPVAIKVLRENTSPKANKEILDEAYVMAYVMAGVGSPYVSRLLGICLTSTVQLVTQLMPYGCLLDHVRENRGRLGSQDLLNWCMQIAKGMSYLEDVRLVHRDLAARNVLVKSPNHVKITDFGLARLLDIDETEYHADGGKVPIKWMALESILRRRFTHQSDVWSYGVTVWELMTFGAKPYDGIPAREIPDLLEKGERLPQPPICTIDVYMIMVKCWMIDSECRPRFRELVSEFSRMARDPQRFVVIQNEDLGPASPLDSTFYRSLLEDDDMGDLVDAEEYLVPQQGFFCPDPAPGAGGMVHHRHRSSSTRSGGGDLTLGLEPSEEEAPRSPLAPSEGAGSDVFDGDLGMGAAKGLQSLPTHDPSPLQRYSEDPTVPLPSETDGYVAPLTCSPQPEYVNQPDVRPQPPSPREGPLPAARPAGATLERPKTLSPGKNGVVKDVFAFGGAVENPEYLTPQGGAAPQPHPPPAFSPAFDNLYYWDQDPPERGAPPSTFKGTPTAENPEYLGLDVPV
row,SMILES,IC50 [nM]
1,C=CC(=O)N1CCN(c2ncc3ncnc(Nc4ccc(Oc5ccn6ncnc6c5)c(C)c4)c3n2)C[C@H]1C [Example I-6],6
2,C=CC(=O)N1CCN(c2ncc3ncnc(Nc4ccc(Oc5ccn6ncnc6c5)c(C)c4)c3n2)[C@H](C)C1 [Example I-7],7
3,C=CC(=O)N1CCN(c2ncc3ncnc(Nc4ccc(Oc5ccn6ncnc6c5)c(C)c4)c3n2)[C@@H](C)C1 [Example I-8],6

# Same assay, conditions: prior art compounds (Table 13); HEK cells expressing HER2 YVMA, Tyr1221/1222, 4 h
row,SMILES,IC50 [nM]
1,"C=CC(=O)Nc1ccc2ncnc(Nc3ccc(Oc4ccn5ncnc5c4)c(C)c3)c2c1 [WO 2007/059257 Ex. 169, reference compound]",81

# Target: T2, EGFR wild type (WT) (Homo sapiens, UniProt P00533)
# T2 construct: expressed in transfected cells; host or cells: human HEK cells (ATCC CRL-1573), retroviral transduction
# T2 sequence (P00533 25-1210): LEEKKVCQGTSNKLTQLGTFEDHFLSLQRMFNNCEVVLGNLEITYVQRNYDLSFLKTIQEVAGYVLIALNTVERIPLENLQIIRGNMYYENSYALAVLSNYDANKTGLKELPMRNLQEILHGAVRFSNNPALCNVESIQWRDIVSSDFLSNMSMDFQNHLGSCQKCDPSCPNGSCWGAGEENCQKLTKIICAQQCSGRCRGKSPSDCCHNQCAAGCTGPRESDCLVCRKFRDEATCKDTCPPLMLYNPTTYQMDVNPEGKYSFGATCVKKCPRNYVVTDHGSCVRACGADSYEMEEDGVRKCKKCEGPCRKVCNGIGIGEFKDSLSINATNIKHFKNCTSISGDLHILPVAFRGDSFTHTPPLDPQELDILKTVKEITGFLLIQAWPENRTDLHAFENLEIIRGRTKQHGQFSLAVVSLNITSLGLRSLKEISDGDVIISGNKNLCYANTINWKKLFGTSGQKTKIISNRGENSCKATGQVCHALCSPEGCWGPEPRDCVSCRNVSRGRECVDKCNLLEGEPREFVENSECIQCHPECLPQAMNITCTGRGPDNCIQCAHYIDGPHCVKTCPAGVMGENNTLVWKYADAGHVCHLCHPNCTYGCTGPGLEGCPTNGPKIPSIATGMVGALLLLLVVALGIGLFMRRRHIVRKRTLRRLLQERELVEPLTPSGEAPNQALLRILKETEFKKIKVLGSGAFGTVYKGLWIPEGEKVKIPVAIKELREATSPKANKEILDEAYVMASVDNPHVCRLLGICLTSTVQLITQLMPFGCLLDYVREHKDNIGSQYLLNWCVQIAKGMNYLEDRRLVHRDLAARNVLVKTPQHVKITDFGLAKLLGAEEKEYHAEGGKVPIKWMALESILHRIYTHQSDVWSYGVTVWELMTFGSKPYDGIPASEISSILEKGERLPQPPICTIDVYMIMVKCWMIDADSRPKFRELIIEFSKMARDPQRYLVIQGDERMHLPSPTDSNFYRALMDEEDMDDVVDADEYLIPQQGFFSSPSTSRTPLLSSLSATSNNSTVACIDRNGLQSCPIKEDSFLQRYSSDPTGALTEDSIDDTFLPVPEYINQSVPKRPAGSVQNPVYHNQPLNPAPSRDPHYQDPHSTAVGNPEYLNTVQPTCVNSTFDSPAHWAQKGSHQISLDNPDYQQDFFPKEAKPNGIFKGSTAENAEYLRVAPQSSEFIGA
# Assay: pEGFR assay (AlphaScreen Surefire, HEK cells)
# Type: cell-based
# Details: HEK cells expressing EGFR WT, phosphorylation at Tyr1068, 4 h
# Method: This assay quantifies the phosphorylation of EGFR at Tyr1068 and was used to measure the inhibitory effect of compounds on the transgenic EGFR wild type (WT) protein expressed in HEK cells.
# as §1, with “Transduced cells were selected using puromycin. p-EGFR Tyr1068 was determined using the AlphaScreen Surefire pEGF Receptor (Tyr1068) Assay (PerkinElmer, TGRERS). For” for “For”, “EGFR WT” for “HER2 YVMA”, “FBS.” for “FBS. 4 hours prior to compound addition, HER2 YVMA expression was induced using 1 μg/ml Doxycycline.”, “C.—with” for “C. with”
# This cellular phospho-EGFR (pEGFR) compound dose-response assay quantifies the phosphorylation of EGFR at Tyr1068 in HEK cells expressing EGFR WT. The results of the assay are provided as IC50 values.
row,SMILES,IC50 [nM]
1,C=CC(=O)N1CCN(c2ncc3ncnc(Nc4ccc(Oc5ccn6ncnc6c5)c(C)c4)c3n2)C[C@H]1C [Example I-6],252
2,C=CC(=O)N1CCN(c2ncc3ncnc(Nc4ccc(Oc5ccn6ncnc6c5)c(C)c4)c3n2)[C@H](C)C1 [Example I-7],1200
3,C=CC(=O)N1CCN(c2ncc3ncnc(Nc4ccc(Oc5ccn6ncnc6c5)c(C)c4)c3n2)[C@@H](C)C1 [Example I-8],577

# Same assay, conditions: prior art compounds (Table 13); HEK cells expressing EGFR WT, Tyr1068, 4 h
row,SMILES,IC50 [nM]
1,"C=CC(=O)Nc1ccc2ncnc(Nc3ccc(Oc4ccn5ncnc5c4)c(C)c3)c2c1 [WO 2007/059257 Ex. 169, reference compound]",355

# Test system: NCI-H2170 (HER2 wild type) cells
# Assay: Tumor cell line proliferation assay, NCI-H2170 (HER2 wild type)
# Type: cell-based
# Details: Homo sapiens, 72 h, CellTiter-Glo, read-out: GI50 NCI H-2170 HER2 wt amp.
# Method: (§2) For proliferation assays, NCI-H2170 (HER2 wild type), NCI-H2170 HER2 YVMA and EGFR WT dependent A431 cells were used. NCI-H2170 HER2 YVMA or NCI-H2170 cells were seeded into 96-well plates at 750 cells/60 μL in growth media (RPMI ATCC+10% FBS, +Penicillin/Streptomycin). […] Compounds were added by using a HP D3000 Digital Dispenser one day after plating the cells. All treatments were performed in technical triplicates. Treated cells were incubated for 72 h at 37° C. with 5% CO2. CellTiter-Glo® Luminescent Cell Viability Assay (Promega) was performed and chemoluminescence was measured by using the multilabel Plate Reader VICTOR X4. The raw data were imported into and analyzed with the Boehringer Ingelheim proprietary software MegaLab (curve fitting based on the program PRISM, GraphPad Inc.).
row,SMILES,GI50 [nM]
1,C=CC(=O)N1CCN(c2ncc3ncnc(Nc4ccc(Oc5ccn6ncnc6c5)c(C)c4)c3n2)C[C@H]1C [Example I-6],9
2,C=CC(=O)N1CCN(c2ncc3ncnc(Nc4ccc(Oc5ccn6ncnc6c5)c(C)c4)c3n2)[C@H](C)C1 [Example I-7],13
3,C=CC(=O)N1CCN(c2ncc3ncnc(Nc4ccc(Oc5ccn6ncnc6c5)c(C)c4)c3n2)[C@@H](C)C1 [Example I-8],14

# Same assay, conditions: Homo sapiens, prior art compounds (Table 14), 72 h, CellTiter-Glo, read-out: GI50 NCI H-2170 HER2 wt amp.
row,SMILES,GI50 [nM]
1,"C=CC(=O)Nc1ccc2ncnc(Nc3ccc(Oc4ccn5ncnc5c4)c(C)c3)c2c1 [WO 2007/059257 Ex. 169, reference compound]",426
2,"CCOc1cc2ncc(C#N)c(Nc3ccc(OCc4ccccn4)c(Cl)c3)c2cc1NC(=O)/C=C/CN(C)C [neratinib, reference compound]",3

# Test system: NCI-H2170 HER2 YVMA cells
# Assay: Tumor cell line proliferation assay, NCI-H2170 HER2 YVMA
# Type: cell-based
# Details: Homo sapiens, 72 h, CellTiter-Glo, read-out: GI50 NCI H-2170 HER2 YVMA
# Excerpt: Homology-directed genome engineering was employed to insert a 12 nucleotide sequence encoding YVMA into Exon 20 of the genomic HER2 locus in NCI-H2170 cells. […] The DNA template containing the HER2 exon 20 YVMA insertion variant was obtained from GenScript. PCR followed by Sanger sequencing was used to confirm the presence of the 12-nucleotide insertion in HER2 Exon 20 resulting in the YVMA amino acid duplication.
# as §2
row,SMILES,GI50 [nM]
1,C=CC(=O)N1CCN(c2ncc3ncnc(Nc4ccc(Oc5ccn6ncnc6c5)c(C)c4)c3n2)C[C@H]1C [Example I-6],52
2,C=CC(=O)N1CCN(c2ncc3ncnc(Nc4ccc(Oc5ccn6ncnc6c5)c(C)c4)c3n2)[C@H](C)C1 [Example I-7],125
3,C=CC(=O)N1CCN(c2ncc3ncnc(Nc4ccc(Oc5ccn6ncnc6c5)c(C)c4)c3n2)[C@@H](C)C1 [Example I-8],91

# Same assay, conditions: Homo sapiens, prior art compounds (Table 14), 72 h, CellTiter-Glo, read-out: GI50 NCI H-2170 HER2 YVMA
row,SMILES,GI50 [nM]
1,"C=CC(=O)Nc1ccc2ncnc(Nc3ccc(Oc4ccn5ncnc5c4)c(C)c3)c2c1 [WO 2007/059257 Ex. 169, reference compound]",1430
2,"CCOc1cc2ncc(C#N)c(Nc3ccc(OCc4ccccn4)c(Cl)c3)c2cc1NC(=O)/C=C/CN(C)C [neratinib, reference compound]",37

# Test system: EGFR WT dependent A431 cells
# Assay: Tumor cell line proliferation assay, A431
# Type: cell-based
# Details: Homo sapiens, A-431; 72 h, CellTiter-Glo; read-out: GI50 A431 EGFR wt amp.
# Method: as §2
row,SMILES,GI50 [nM]
1,C=CC(=O)N1CCN(c2ncc3ncnc(Nc4ccc(Oc5ccn6ncnc6c5)c(C)c4)c3n2)C[C@H]1C [Example I-6],2640
2,C=CC(=O)N1CCN(c2ncc3ncnc(Nc4ccc(Oc5ccn6ncnc6c5)c(C)c4)c3n2)[C@H](C)C1 [Example I-7],3990
3,C=CC(=O)N1CCN(c2ncc3ncnc(Nc4ccc(Oc5ccn6ncnc6c5)c(C)c4)c3n2)[C@@H](C)C1 [Example I-8],3790

# Same assay, conditions: Homo sapiens, A-431; prior art compounds (Table 14); 72 h, CellTiter-Glo; read-out: GI50 A431 EGFR wt amp.
row,SMILES,GI50 [nM]
1,"C=CC(=O)Nc1ccc2ncnc(Nc3ccc(Oc4ccn5ncnc5c4)c(C)c3)c2c1 [WO 2007/059257 Ex. 169, reference compound]",> 5000
2,"CCOc1cc2ncc(C#N)c(Nc3ccc(OCc4ccccn4)c(Cl)c3)c2cc1NC(=O)/C=C/CN(C)C [neratinib, reference compound]",55

# Test system: Ba/F3 cells HER2 WT
# Assay: Ba/F3 proliferation assay, HER2 WT
# Type: cell-based
# Details: Mus musculus, BaF3; 72 h, CellTiter-Glo
# Method: (§3) Plasmids containing HER2 mutants and EGFR WT were obtained from GeneScript. To generate EGFR/HER2-dependent Ba/F3 models, Ba/F3 cells were transduced with retroviruses containing vectors that harbor EGFR WT, HER2 WT or HER2 mutants (YVMA). Platinum-E cells (Cell Biolabs) were used for retrovirus packaging. Retrovirus was added to Ba/F3 cells. To ensure infection, 4 μg/mL polybrene was added and cells were spinfected. Infection efficiency was confirmed by measuring GFP-positive cells using a cell analyzer. Cells with an infection efficiency of 10% to 20% were further cultivated and puromycin selection with 1 μg/mL was initiated. As a control, parental Ba/F3 cells were used to assess the selection status. Selection was considered successful when parental Ba/F3 cells cultures died. To evaluate the transforming potential of HER2 mutations, the growth medium was no longer supplemented with IL-3. Ba/F3 cells harboring the empty vector were used as a control. A switch from IL-3 to EGF was performed for Ba/F3 cells with the EGFR WT known for its dependency on EGF ligand. Approximately ten days before conducting the experiments, puromycin was left out. For proliferation assays (data in table 12 and 14), Ba/F3 cells were seeded into 96-well plates at 5×10^3 cells/100 μL in growth media. Compounds were added by using a HP D3000 Digital Dispenser. All treatments were performed in technical triplicates. Treated cells were incubated for 72 h at 37° C. with 5% CO2. CellTiter-Glo® Luminescent Cell Viability Assay (Promega) was performed and chemoluminescence was measured by using the multilabel Plate Reader VICTOR X4. The raw data were imported into and analyzed with the Boehringer Ingelheim proprietary software MegaLab (curve fitting based on the program PRISM, GraphPad Inc.).
row,SMILES,GI50 [nM]
1,C=CC(=O)N1CCN(c2ncc3ncnc(Nc4ccc(Oc5ccn6ncnc6c5)c(C)c4)c3n2)[C@H](C)C1 [Example I-7],4
2,C=CC(=O)N1CCN(c2ncc3ncnc(Nc4ccc(Oc5ccn6ncnc6c5)c(C)c4)c3n2)[C@@H](C)C1 [Example I-8],3

# Same assay, conditions: Mus musculus, BaF3; prior art compounds (Table 14); 72 h, CellTiter-Glo
row,SMILES,GI50 [nM]
1,"C=CC(=O)Nc1ccc2ncnc(Nc3ccc(Oc4ccn5ncnc5c4)c(C)c3)c2c1 [WO 2007/059257 Ex. 169, reference compound]",40

# Test system: Ba/F3 cells HER2 mutants (YVMA)
# Assay: Ba/F3 proliferation assay, HER2 YVMA
# Type: cell-based
# Details: Mus musculus, BaF3; 72 h, CellTiter-Glo
# Method: as §3
row,SMILES,GI50 [nM]
1,C=CC(=O)N1CCN(c2ncc3ncnc(Nc4ccc(Oc5ccn6ncnc6c5)c(C)c4)c3n2)C[C@H]1C [Example I-6],15
2,C=CC(=O)N1CCN(c2ncc3ncnc(Nc4ccc(Oc5ccn6ncnc6c5)c(C)c4)c3n2)[C@H](C)C1 [Example I-7],29
3,C=CC(=O)N1CCN(c2ncc3ncnc(Nc4ccc(Oc5ccn6ncnc6c5)c(C)c4)c3n2)[C@@H](C)C1 [Example I-8],22

# Same assay, conditions: Mus musculus, BaF3; prior art compounds (Table 14); 72 h, CellTiter-Glo
row,SMILES,GI50 [nM]
1,"C=CC(=O)Nc1ccc2ncnc(Nc3ccc(Oc4ccn5ncnc5c4)c(C)c3)c2c1 [WO 2007/059257 Ex. 169, reference compound]",334
2,"CCOc1cc2ncc(C#N)c(Nc3ccc(OCc4ccccn4)c(Cl)c3)c2cc1NC(=O)/C=C/CN(C)C [neratinib, reference compound]",5

# Test system: Ba/F3 cells EGFR WT
# Assay: Ba/F3 proliferation assay, EGFR WT (EGF dependent)
# Type: cell-based
# Details: Mus musculus, BaF3, EGF instead of IL-3, 72 h, CellTiter-Glo, read-out: GI50 BAF3 EGF dep.
# Method: as §3
row,SMILES,GI50 [nM]
1,C=CC(=O)N1CCN(c2ncc3ncnc(Nc4ccc(Oc5ccn6ncnc6c5)c(C)c4)c3n2)C[C@H]1C [Example I-6],2650
2,C=CC(=O)N1CCN(c2ncc3ncnc(Nc4ccc(Oc5ccn6ncnc6c5)c(C)c4)c3n2)[C@H](C)C1 [Example I-7],> 5000
3,C=CC(=O)N1CCN(c2ncc3ncnc(Nc4ccc(Oc5ccn6ncnc6c5)c(C)c4)c3n2)[C@@H](C)C1 [Example I-8],> 5000

# Same assay, conditions: Mus musculus, BaF3, prior art compounds (Table 14), EGF, 72 h, CellTiter-Glo, read-out: GI50 BAF3 EGF dep.
row,SMILES,GI50 [nM]
1,"C=CC(=O)Nc1ccc2ncnc(Nc3ccc(Oc4ccn5ncnc5c4)c(C)c3)c2c1 [WO 2007/059257 Ex. 169, reference compound]",3560
2,"CCOc1cc2ncc(C#N)c(Nc3ccc(OCc4ccccn4)c(Cl)c3)c2cc1NC(=O)/C=C/CN(C)C [neratinib, reference compound]",14
